Columns and labels:
[1] = CMC by surface tensiometry; type: physicochemical; settings: Table 2
Source text: CMC measurements from DOSY experiments agree with previously reported surface tensiometry data for melibiosides and cellobiosides, as well as literature values for the glucosides.

[2] = literature; cited from earlier work
[3] = CMC determination by DOSY NMR (diffusion coefficients vs inverse concentration, linear regression); type: physicochemical; settings: for CMC: DOSY, in D2O, Table 1; for CMC, DOSY (Diffusion Coefficients): Table 2
Procedure: Sample solutions were transferred (500 μL) to 5 mm NMR tubes for automated analysis via Bruker 400 MHz spectrometer. Gradient pulse strengths and delays were standardized for all experiments, with a pulse interval (δ) of 3 ms and diffusion interval (Δ) of 200 ms; these values were experimentally determined to ensure the arrayed diffusion data would provide a reasonable curve for accurate Dc determination.
Stacked data arrays were processed in MestReNova® by setting the appropriate value “k” standardized to known self-diffusion coefficients of the bulk solvent, then applying Bayesian DOSY transform to yield pseudo-2D spectra containing the ^1H NMR spectrum vs diffusion coefficients. Averaged values for samples at each concentration were plotted vs. the inverse concentration. Data points from monomeric and aggregated samples were identified by the first signs of decreasing Dc, and linear regression of the two sets provided an intercept estimated as the CMC. Slope and intercept errors were used to calculate error.
Linear regression of the data sets, i.e. monomers and aggregates, provided an intercept estimated as the CMC. […] CMC's decreased approximately a full order of magnitude when the hydrocarbon chain length increased by two methylene groups as described previously.

[4] = Table 2, marked (lit); cited from earlier work
[5] = Aggregate radius and aggregation number (Nagg) from DOSY diffusion data (Stokes-Einstein, spherical model); type: physicochemical; settings: D2O
Procedure: The Stokes-Einstein equation provided estimated aggregate radii from the recorded diffusion coefficients. Further, Tanford's equations: lc≤lmax≈(0.154+0.1265n)nm and v≈(27.4+26.9n)×[…] nm^3 were used to calculate the critical volume (v) and maximum length (lmax) of the hydrocarbon tail based on the length of the lipid tail, n. Energy-minimized structures in MOE® were measured to find critical length (lc) values.
The average micelle radius (r) was calculated for each concentration of the surfactants (FIG. 9). Using molecular volume (V) calculations from MOE®, a spherical model was used to estimate aggregation numbers (Nagg) for each sample (FIG. 10). In general, these values correspond well to values determined by fluorescence quenching experiments. For samples such as decyl glucoside and dodecyl melibioside, Nagg values greater than 200 are representative of both the fact that larger aggregates will form at high concentrations, and that D2O (and 0.9% NaCl in H2O) induces the formation of higher order structures. Dodecyl melibioside is an example, where previous fluorescence quenching experiments show Nagg averages at 65 in concentrations over 20 mM. For these DOSY experiments Nagg is above 300 at only 5 mM, […], and more likely describing rod-like aggregates.

[6] = Solubility/precipitation behaviour in D2O, 0.9% NaCl and buffers
Procedure: NMR samples were prepared in triplicate by diluting concentrated stock solutions of the alkyl glycoside or SDS in D2O to concentrations below the known or estimated CMC values. For highly concentrated and/or insoluble samples, vials were warmed in an oil bath until the solution formed and was clear and cooled to RT. Precipitated samples were measured both before and after filtration of the precipitate to observe diffusion behavior. Solutions of the three glucosides were also prepared from 100 mM stock solutions of the glycolipid in dry CHCl3, with addition of D2O to aid solubility and aggregation. Soluble samples were analyzed to determine behavior in apolar conditions.

[7] = previous fluorescence quenching experiments, concentrations over 20 mM; cited from earlier work

Row | CMC, Surface Tens. [1] [mM] | CMC [3] [mM] | CMC, DOSY (Diffusion Coefficients) [3] [mM] | radius of "large" aggregates ([5]; samples containing precipitate) [Å] | radius of "small" aggregates ([5]; samples containing precipitate) [Å] | Nagg (aggregation number) ([5]; at 5 mM) | Compound | a0 [Lit.] (headgroup area) [2] [Å^2] | CMC, Surface Tens. (lit) [4] [mM] | solubility / precipitation [6] | Nagg average (aggregation number) [7]
1 | 1.8 ± 0.2 | 1.8 ± 0.3 | 2.2 ± 0.7 | – | – | – | CCCCCCCCCCOC1O[C@H](CO)[C@@H](O[C@@H]2O[C@H](CO)[C@@H](O)[C@H](O)[C@H]2O)[C@H](O)[C@H]1O (some centres unmarked) [Decyl Cellobioside] | 50 | – | – | –
2 | – | 1.9 ± 0.9 | 2.1 ± 0.7 | 90 | 40 | – | CCCCCCCCCCO[C@@H]1O[C@H](CO)[C@@H](O)[C@H](O)[C@H]1O [Decyl Glucoside] | 42 | 2.2 | – | –
3 | 3.3 ± 0.2 | 3.9 ± 0.1 | 3.9 ± 0.1 | – | – | – | CCCCCCCCCCOC1O[C@H](CO[C@H]2O[C@H](CO)[C@H](O)[C@H](O)[C@H]2O)[C@@H](O)[C@H](O)[C@H]1O (some centres unmarked) [Decyl Melibioside] | 68 | – | – | –
4 | 0.18 ± 0.01 | – | 0.29 ± 0.4 | – | – | – | CCCCCCCCCCCCOC1O[C@H](CO)[C@@H](O[C@@H]2O[C@H](CO)[C@@H](O)[C@H](O)[C@H]2O)[C@H](O)[C@H]1O (some centres unmarked) [Dodecyl Cellobioside] | 49 | – | – | –
5 | – | – | – | – | – | – | CCCCCCCCCCCCO[C@@H]1O[C@H](CO)[C@@H](O)[C@H](O)[C@H]1O [Dodecyl Glucoside] | 34 | – | remained insoluble | –
6 | 0.30 ± 0.02 | 0.3 ± 0.00 | 0.31 ± 0.005 | – | – | above 300 | CCCCCCCCCCCCOC1O[C@H](CO[C@H]2O[C@H](CO)[C@H](O)[C@H](O)[C@H]2O)[C@@H](O)[C@H](O)[C@H]1O (some centres unmarked) [Dodecyl Melibioside] | 51 | – | – | 65
7 | 19 ± 3 | 19.7 ± 2.2 | 21 ± 2 | – | – | – | CCCCCCCCOC1O[C@H](CO)[C@@H](O[C@@H]2O[C@H](CO)[C@@H](O)[C@H](O)[C@H]2O)[C@H](O)[C@H]1O (some centres unmarked) [Octyl Cellobioside] | 50 | – | – | –
8 | – | 22.5 ± 2.4 | 20 ± 3 | – | – | – | CCCCCCCCO[C@@H]1O[C@H](CO)[C@@H](O)[C@H](O)[C@H]1O [Octyl Glucoside] | 42 | 20 | – | –
9 | 44 ± 5 | 39.9 ± 5.2 | 40 ± 5 | – | – | – | CCCCCCCCOC1O[C@H](CO[C@H]2O[C@H](CO)[C@H](O)[C@H](O)[C@H]2O)[C@@H](O)[C@H](O)[C@H]1O (some centres unmarked) [Octyl Melibioside] | 73 | – | – | –
10 | – | 8.5 ± 1.7 | 8.4 ± 2 | – | – | – | CCCCCCCCCCCCOS(=O)(=O)[O-].[Na+] [SDS, reference compound] | 61 | 8.2 | – | –
